# Measured values taken from ChEMBL document CHEMBL1201862, “PubChem BioAssay data set” (2004).
# Active and inactive are the calls of the source.
# Columns and labels:
# [1] = molecular target: T1, Aminopeptidase N (Plasmodium falciparum FcB1/Columbia, UniProt O96935); experiment: P. falciparum M1AAP inhibitors, biochemical, fluorogenic H-Leu-NHMec substrate, 1536-well (AID 1445); parameters: species or system Plasmodium falciparum 3D7, 3D7
# T1 sequence (O96935 whole entry): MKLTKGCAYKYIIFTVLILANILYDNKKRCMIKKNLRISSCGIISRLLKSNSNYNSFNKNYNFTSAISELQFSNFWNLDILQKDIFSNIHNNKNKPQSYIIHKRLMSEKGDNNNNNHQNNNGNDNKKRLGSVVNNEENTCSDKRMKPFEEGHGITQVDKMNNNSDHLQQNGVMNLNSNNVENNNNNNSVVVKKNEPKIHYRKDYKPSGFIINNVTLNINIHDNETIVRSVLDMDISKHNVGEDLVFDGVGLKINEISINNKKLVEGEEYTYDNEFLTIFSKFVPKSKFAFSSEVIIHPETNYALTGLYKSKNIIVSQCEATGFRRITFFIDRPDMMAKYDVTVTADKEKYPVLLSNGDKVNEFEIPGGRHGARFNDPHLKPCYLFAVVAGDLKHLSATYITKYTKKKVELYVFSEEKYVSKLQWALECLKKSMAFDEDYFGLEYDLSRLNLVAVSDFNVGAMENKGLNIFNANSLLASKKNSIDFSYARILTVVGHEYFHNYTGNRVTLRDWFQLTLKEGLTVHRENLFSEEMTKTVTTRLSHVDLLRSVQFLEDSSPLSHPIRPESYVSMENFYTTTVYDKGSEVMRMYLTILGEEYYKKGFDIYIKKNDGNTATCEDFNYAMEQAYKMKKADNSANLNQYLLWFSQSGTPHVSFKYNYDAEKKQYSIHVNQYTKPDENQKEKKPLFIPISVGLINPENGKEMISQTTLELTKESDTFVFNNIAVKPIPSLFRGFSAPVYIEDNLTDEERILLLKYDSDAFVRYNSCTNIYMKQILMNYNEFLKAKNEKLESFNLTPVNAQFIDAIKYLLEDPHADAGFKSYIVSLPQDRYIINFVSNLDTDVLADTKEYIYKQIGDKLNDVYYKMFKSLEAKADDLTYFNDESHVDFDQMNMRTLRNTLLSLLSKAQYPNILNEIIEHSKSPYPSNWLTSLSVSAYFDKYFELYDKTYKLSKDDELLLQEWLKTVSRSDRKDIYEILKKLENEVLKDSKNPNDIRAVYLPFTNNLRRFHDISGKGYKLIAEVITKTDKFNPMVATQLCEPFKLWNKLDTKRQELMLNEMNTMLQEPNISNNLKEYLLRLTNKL
# [2] = molecular target: Dual specificity tyrosine-phosphorylation-regulated kinase 1A (Rattus norvegicus, UniProt Q63470); format: biochemical, Homo sapiens
# [3] = molecular target: DNA dC->dU-editing enzyme APOBEC-3A (Homo sapiens, UniProt P31941); experiment: Dose Response confirmation of small molecule APOBEC3A DNA Deaminase Inhibitors via a fluorescence-based single-stranded DNA deaminase assay. [Related pubchem assays (depositor defined):AID493011, AID493024]; format: functional
# Sequence of DNA dC->dU-editing enzyme APOBEC-3A (P31941 whole entry): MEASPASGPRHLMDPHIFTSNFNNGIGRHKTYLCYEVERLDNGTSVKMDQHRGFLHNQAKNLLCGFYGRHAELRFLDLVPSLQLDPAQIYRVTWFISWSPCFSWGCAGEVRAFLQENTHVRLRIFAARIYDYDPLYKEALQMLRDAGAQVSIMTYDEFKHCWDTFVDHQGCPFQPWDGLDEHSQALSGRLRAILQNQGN
# [4] = molecular target: DNA dC->dU-editing enzyme APOBEC-3G (Homo sapiens, UniProt Q9HC16); format: functional;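 further: Dose-response counterscreen measuring inhibition of APOBEC3G DNA deaminase activity, run while confirming APOBEC3A inhibitors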
# Sequence of DNA dC->dU-editing enzyme APOBEC-3G (Q9HC16 whole entry): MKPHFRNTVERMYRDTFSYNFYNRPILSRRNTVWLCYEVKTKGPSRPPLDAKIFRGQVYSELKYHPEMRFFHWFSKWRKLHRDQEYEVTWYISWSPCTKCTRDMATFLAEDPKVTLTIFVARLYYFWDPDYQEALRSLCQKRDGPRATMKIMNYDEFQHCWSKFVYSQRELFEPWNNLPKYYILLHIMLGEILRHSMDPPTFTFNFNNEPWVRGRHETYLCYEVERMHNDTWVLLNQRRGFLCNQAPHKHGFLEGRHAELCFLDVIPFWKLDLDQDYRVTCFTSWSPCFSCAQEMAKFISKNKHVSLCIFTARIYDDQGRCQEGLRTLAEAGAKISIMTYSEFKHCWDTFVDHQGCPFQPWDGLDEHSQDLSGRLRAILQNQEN
# [5] = molecular target: T2, Estrogen receptor (Homo sapiens, UniProt P03372);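 further: potency for inhibiting coactivator peptide recruitment to the receptor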
# T2 sequence (P03372 whole entry): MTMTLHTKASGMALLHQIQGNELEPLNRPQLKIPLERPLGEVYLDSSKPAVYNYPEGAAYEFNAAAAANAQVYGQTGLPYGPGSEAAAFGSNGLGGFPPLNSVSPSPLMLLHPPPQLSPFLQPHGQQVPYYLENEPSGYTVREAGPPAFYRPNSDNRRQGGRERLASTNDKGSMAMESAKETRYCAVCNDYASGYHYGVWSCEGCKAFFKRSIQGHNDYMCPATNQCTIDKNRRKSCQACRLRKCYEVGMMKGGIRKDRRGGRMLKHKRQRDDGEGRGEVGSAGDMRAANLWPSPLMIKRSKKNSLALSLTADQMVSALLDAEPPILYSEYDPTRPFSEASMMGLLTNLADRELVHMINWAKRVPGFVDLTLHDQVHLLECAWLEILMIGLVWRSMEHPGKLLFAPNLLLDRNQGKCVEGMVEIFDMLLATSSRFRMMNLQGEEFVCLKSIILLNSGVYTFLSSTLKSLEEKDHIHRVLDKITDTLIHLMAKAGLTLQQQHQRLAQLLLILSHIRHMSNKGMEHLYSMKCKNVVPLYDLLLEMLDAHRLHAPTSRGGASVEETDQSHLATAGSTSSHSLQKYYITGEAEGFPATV
# [6] = cytotoxicity in HEK-293T cells, dose response, cytotoxicity control for BCR NF-kB inhibitor project, luminescence, B-cell screen hits (AID 489021); format: functional, cell-based;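 further: HEK-293T cells carrying an NF-kB luciferase reporter; cells exposed to compound for about 14 hours before viability readout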
# [7] = molecular target: T3, Apoptotic protease-activating factor 1 (Homo sapiens, UniProt O14727); format: functional
# T3 sequence (O14727 whole entry): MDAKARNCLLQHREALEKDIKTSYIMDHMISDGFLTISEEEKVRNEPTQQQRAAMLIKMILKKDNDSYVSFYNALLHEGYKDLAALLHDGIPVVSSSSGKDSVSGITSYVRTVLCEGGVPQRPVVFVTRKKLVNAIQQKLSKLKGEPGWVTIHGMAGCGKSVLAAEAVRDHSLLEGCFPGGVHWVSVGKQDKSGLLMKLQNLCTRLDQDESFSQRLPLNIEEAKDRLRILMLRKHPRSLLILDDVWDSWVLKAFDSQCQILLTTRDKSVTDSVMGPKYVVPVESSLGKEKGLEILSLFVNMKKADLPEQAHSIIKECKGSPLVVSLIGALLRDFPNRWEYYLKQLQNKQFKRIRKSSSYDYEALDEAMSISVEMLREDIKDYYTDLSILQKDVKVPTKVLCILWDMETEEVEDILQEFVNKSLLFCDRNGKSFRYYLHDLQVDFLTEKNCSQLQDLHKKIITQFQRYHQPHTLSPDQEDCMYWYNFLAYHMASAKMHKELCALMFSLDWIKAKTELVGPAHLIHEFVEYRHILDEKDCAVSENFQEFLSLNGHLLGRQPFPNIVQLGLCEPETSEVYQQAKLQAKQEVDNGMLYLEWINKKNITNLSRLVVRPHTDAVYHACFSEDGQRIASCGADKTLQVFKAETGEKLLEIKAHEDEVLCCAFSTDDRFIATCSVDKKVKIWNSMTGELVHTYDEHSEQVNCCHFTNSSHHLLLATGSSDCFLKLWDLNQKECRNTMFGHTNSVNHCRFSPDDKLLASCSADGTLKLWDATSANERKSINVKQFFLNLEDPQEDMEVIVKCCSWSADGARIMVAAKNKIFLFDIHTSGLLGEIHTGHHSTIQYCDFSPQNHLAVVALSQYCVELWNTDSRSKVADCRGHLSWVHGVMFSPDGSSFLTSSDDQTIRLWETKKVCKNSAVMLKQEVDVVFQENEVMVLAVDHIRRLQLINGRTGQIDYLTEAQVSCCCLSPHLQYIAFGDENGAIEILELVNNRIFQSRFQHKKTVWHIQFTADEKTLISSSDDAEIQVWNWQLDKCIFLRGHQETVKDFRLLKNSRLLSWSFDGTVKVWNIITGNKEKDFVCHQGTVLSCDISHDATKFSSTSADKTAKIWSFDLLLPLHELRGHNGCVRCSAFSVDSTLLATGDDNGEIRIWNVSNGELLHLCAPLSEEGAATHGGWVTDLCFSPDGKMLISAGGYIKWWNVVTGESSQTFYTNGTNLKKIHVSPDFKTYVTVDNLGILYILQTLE
# [8] = test system: Vero; experiment: cells; format: functional; settings: Chlorocebus sabaeus
# [9] = inhibitors of firefly luciferase expression or activity, dose response, H4 neuroglioma cells, luminescence (AID 1990); format: functional, cell-based
# [10] = test system: HEK293; experiment: NOD1 signaling inhibitors, primary screen, cell-based, luminescence, uHTS (AID 1578); format: functional; settings: Homo sapiens
# [11] = test system: HEK293; experiment: cells; format: functional, cell-based; settings: Homo sapiens
# [12] = Luminescence Cell-Based Dose Response HTS to Identify Inhibitors of 5'UTR Stem-Loop Driven Prion Protein mRNA Translation in H4 Neuroglioblastoma Cells. [Related pubchem assays: 1827 (Project Summary), 1813 (Primary HTS)]; format: functional
# [13] = molecular target: T4, Heat shock factor protein 1 (Mus musculus, UniProt P38532); experiment: inhibition of MG132-induced HSE-luciferase signal, confirmation, cell-based, NIH3T3, luminescence, dose retest (AID 2382); format: functional;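 further: NIH3T3 fibroblasts with HSF1-driven luciferase reporter stressed by proteasome inhibitor MG132; luminescence from HSF1-driven luciferase expression after 8 hours of MG132 stress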
# T4 sequence (P38532 whole entry): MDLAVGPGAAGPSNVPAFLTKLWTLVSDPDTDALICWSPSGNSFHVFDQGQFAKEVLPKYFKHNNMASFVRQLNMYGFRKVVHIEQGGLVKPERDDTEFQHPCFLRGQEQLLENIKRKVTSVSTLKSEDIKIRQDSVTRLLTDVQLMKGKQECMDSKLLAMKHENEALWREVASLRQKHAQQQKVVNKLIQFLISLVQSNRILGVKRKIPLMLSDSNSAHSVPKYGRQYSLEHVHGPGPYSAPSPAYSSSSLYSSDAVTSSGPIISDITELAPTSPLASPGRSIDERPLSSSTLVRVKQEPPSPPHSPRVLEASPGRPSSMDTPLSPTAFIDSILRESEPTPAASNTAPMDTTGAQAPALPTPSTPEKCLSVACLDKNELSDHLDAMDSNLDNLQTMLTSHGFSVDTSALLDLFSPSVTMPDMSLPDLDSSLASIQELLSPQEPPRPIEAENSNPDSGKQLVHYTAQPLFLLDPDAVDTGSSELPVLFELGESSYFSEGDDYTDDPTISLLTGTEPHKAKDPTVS
# [14] = inhibitors of SNCA 5'UTR-driven reporter translation, confirmation, H4 neuroglioma cells, luminescence (AID 1988); format: functional, cell-based
# [15] = test system: HEK293; experiment: cells; format: functional, cell-based; settings: Homo sapiens; remark: listed apart in the source
# [16] = molecular target: Nucleotide-binding oligomerization domain-containing protein 2 (Homo sapiens, UniProt Q9HC29); experiment: NOD2 signaling inhibitors, cell-based, luminescence, uHTS, HEK293 (AID 1566); format: functional
# Sequence of Nucleotide-binding oligomerization domain-containing protein 2 (Q9HC29 whole entry, the tested form may be a part): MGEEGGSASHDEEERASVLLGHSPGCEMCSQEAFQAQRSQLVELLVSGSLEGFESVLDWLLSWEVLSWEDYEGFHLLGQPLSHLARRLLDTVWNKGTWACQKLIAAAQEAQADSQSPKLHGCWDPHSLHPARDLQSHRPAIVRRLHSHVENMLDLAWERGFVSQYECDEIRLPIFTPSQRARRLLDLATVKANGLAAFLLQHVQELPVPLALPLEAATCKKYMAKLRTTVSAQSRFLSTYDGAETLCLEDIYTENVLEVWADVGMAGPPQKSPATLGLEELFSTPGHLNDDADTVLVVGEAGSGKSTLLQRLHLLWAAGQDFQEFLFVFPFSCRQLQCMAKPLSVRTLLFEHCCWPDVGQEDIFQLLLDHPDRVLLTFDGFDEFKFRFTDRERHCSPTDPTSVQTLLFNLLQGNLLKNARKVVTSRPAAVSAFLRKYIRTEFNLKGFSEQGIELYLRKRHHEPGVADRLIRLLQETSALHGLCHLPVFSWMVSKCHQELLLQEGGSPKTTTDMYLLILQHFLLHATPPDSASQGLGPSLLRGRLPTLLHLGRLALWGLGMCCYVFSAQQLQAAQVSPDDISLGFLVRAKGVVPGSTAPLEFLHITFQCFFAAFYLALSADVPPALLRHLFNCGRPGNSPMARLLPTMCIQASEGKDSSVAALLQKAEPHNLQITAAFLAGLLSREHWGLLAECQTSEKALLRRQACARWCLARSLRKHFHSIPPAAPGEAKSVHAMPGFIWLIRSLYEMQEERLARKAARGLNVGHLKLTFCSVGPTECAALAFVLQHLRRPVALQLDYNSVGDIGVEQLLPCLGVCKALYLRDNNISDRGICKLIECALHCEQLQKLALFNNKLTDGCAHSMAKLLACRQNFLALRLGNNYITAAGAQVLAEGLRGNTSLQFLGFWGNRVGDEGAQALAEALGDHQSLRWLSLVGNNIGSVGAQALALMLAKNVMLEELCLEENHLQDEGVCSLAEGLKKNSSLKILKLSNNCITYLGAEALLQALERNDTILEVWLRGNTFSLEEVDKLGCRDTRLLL
# [17] = test system: HEK293; experiment: NOD2 signaling inhibitors in MDP-stimulated cells, cell-based, uHTS, luminescence (AID 2001); format: functional; settings: Homo sapiens
# [18] = test system: HEK293; experiment: cells; format: functional, cell-based; settings: Homo sapiens; remark: listed apart in the source
# [19] = Luminescence Cell-Based Dose Retest to Confirm Inhibitors of Cancer Stem Cells. [Related pubchem assays (depositor defined):AID2717, AID2721]; format: functional; settings: Homo sapiens
# [20] = test system: INS1; experiment: beta cell apoptosis inhibitors, cytokine rescue, dose response, luminescence, retest (AID 449756); format: functional, cell-based; settings: Rattus norvegicus;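 further: cell death triggered by IL-1 beta plus TNF-alpha plus IFN-gamma mixture; protective hits raise ATP signal compared with cytokine alone wells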
# [21] = cytotoxicity in HPDE-C7 cells, cell-based, fluorescence, HTS (AID 430); format: functional; settings: Homo sapiens
# [22] = cytotoxicity in KRAS-transformed pancreatic duct cells, primary screen, cell-based, fluorescence, HTS (AID 431); format: functional; settings: Homo sapiens;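 further: cell line used: HPDE-C7K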
smiles,measurement,setting,value
COc1ccc2cc3cc(C(=O)NCC4CCCO4)oc3nc2c1 (centres undefined),IC50,[1],79.3 µM (active)
same,AC50,[2],7.86 µM (active)
CC(=O)Nc1nnc(SCc2ccc(C(=O)Nc3ccccc3F)cc2)s1,IC50,[3],5.85 µM (active)
same,IC50,[4],6.06 µM (active)
Cn1c(SCC(=O)Nc2ccc3c(c2)oc2ccccc23)nnc1-c1ccccc1,IC50,[5],> 50 µM (not active)
same,IC50,[3],5.4 µM (active)
same,IC50,[4],6.7 µM (active)
Cc1ccc(-c2nn3c(C)nnc3c3ccccc23)cc1S(=O)(=O)NCc1ccco1,IC50,[6],> 80 µM (inactive)
same,IC50,[7],15.2 µM (active)
same,CC50,[8],3.28 µM (active)
O=C(O)CCSc1ncnc2sc(-c3ccccc3)cc12,EC50,[9],4.36 µM (active)
same,EC50,[10],7.39 µM (active)
same,IC50,[11],1.54 µM (active)
same,EC50,[12],9.35 µM (active)
same,EC50,[13],0.643 µM (active)
same,EC50,[14],4.68 µM (active)
same,IC50,[15],> 20 µM (inactive)
same,EC50,[16],4.19 µM (active)
same,IC50,[17],3.59 µM (active)
same,IC50,[18],> 20 µM (inactive)
same,IC50,[6],> 80 µM (inactive)
COc1cc(NC(=O)c2cc3ccccc3cc2O)c(OC)cc1Cl,EC50,[10],4.15 µM (active)
same,IC50,[11],> 20 µM (inactive)
same,IC50,[15],14 µM (active)
same,EC50,[16],5.66 µM (active)
same,IC50,[17],4.06 µM (inactive)
same,IC50,[18],> 20 µM (inactive)
same,AC50,[19],0.612 µM (active)
same,AC50,[20],4.03 µM (active)
C[N+]1(CCCCCCC(=O)C=NO)CCCCCC1,IC50,[3],4.03 µM (active)
same,IC50,[4],3.9 µM (active)
O=C(Nc1ccc2nn(-c3ccccc3)nc2c1)c1ccc2c(c1)OCCO2,EC50,[10],> 20 µM (inactive)
same,IC50,[11],5.31 µM (active)
same,IC50,[15],> 20 µM (inactive)
same,EC50,[21],> 20 µM (not active)
same,EC50,[16],> 20 µM (inactive)
same,IC50,[17],8.39 µM (active)
same,IC50,[18],> 20 µM (inactive)
same,EC50,[22],> 20 µM (not active)
COc1ccc(-c2csc3nc(-c4cccnc4)nc(N4CCC(C(N)=O)CC4)c23)cc1OC,IC50,[6],43.7 µM (inactive)
COC(=O)Cc1cc(=O)oc2cc(O)ccc12,IC50,[1],36.6 µM (active)
CC1(C)Oc2ccc3ccc(=O)oc3c2C(/C=N/CCO)=C1O,IC50,[3],2.47 µM (active)
same,IC50,[4],6.83 µM (active)
C/C(=N\Nc1nc(Nc2ccccc2)nc(N2CCOCC2)n1)c1cccs1,IC50,[6],> 80 µM (inactive)
